The subject of experiment [1] is secretion of IL6 by OCI-LY3 ABC-DLBCL cells. Put plainly: Human IL6 Mesoscale assay (OCI-LY3). As to conditions: 24 h incubation, IL6 in supernatant. Type of experiment: cell-based. A digest of the protocol: (§1)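 OCI-LY3 cells (100,000/well) treated 24 h at 37° C with compounds, 9-point 1:2 dilutions from 15 μM to 58.6 nM (0.3% DMSO). Supernatant IL6 and IL10 quantified by Mesoscale electrochemiluminescence immunoassay; DMSO defined maximum signal, BTK inhibitor RN486 defined maximum inhibition.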

Experiment [2] relates to secretion of IL10 by OCI-LY3 ABC-DLBCL cells. The experiment can be described thus: Human IL10 Mesoscale assay (OCI-LY3). Format: cell-based. As to conditions: 24 h incubation, IL10 in supernatant. A digest of the protocol:
as §1

Experiment [3] has as its target T1, full-length MALT1 protein (Strep-MALT1(1-824)-His) (Homo sapiens, UniProt Q9UDY8).
T1 construct: full-length MALT1 protein (Strep-MALT1(1-824)-His) purified from baculovirus-infected insect cells; Strep (N); His (C); made in house; host or cells: baculovirus-infected insect cells
T1 sequence (Q9UDY8 1-824): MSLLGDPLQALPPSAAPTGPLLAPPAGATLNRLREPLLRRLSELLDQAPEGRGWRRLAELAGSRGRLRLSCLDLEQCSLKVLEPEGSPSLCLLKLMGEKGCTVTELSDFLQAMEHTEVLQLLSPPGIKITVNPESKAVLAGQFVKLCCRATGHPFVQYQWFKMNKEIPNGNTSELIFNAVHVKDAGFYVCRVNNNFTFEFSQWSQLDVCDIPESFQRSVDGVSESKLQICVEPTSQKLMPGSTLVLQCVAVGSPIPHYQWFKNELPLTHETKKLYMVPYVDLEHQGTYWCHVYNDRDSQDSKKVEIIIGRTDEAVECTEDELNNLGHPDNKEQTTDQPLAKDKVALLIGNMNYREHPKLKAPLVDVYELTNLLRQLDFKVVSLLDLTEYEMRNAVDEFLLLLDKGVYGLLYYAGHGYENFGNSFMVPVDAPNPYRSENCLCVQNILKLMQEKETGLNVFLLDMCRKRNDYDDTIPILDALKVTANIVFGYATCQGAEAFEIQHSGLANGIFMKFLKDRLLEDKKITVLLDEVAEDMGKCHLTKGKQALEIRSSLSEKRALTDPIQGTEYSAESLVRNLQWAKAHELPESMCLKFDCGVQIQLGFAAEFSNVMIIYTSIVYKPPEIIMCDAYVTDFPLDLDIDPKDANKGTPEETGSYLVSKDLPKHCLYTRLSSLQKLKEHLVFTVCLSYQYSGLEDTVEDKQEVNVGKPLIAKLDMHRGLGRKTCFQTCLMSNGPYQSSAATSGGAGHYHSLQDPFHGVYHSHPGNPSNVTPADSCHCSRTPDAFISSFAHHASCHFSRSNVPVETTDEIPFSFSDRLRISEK
The experiment can be described thus: MALT1 Biochemical Protease Assay. To be noted: 10 nM FL MALT1, 200 μM Ac-LRSR-AMC, 50 min pre-incubation, 4 h at RT; read-out: MALT1_Biochemical activity (Ac-LRSR-amc) IC50. A digest of the protocol:
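Full-length Strep-MALT1(1-824)-His from baculovirus-infected insect cells, 10 nM, preincubated with compound 50 min at RT; 200 μM Ac-LRSR-AMC (KM) in 50 mM Tris pH 7.5, 0.6 M citrate, 1 mM DTT, 1 mM EDTA, 0.05% BSA, 1.5% DMSO. Fluorescence 355/460 nm, 4 h minus time 0; 11-point 1:3 series 30 μM–0.5 nM, IC50 with Hill slope.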

Each structure is given as a SMILES string.

Regarding `COC(C)c1c(NC(=O)Nc2cnc(-n3nccn3)c(C(F)(F)F)c2)cnc(C(F)F)c1C#N` (single isomer, unassigned) [Co. 127], the IC50 came to 60 nM in experiment [1], 40 nM in experiment [2] and 30 nM in experiment [3].
Regarding `COC(C)c1c(NC(=O)Nc2cnc(C3CC3)c(C(F)(F)F)c2)cnc(C)c1Cl` (single isomer, unassigned) [Co. 68], the IC50 in experiment [1] is above 15000 nM; in experiment [2], above 15000 nM; in experiment [3], above 30200 nM.
`CO[C@H](C)c1c(NC(=O)Nc2cnc(OC(F)F)c(Cl)c2)cnc(C)c1Cl` [Co. 74]: the values for the IC50 in experiment [1], in experiment [2] and in experiment [3] were 930 nM, 650 nM and 1350 nM, respectively.
Take `CO[C@H](C)c1c(NC(=O)Nc2ccnc(C(F)(F)F)c2)cnc(C)c1C#N` (single isomer, unassigned) [Co. 145]: the half-maximal inhibitory concentration (IC50) came out at 260 nM in experiment [1] (Homo sapiens), 170 nM in experiment [2] (Homo sapiens) and 290 nM in experiment [3].
`CO[C@H](C)c1c(NC(=O)Nc2cnc(C3CC3)c(C(F)(F)F)c2)cnc(C)c1Cl` [Co. 67]: the figures for the IC50 in experiment [1], in experiment [2] and in experiment [3] were 4170 nM, 1780 nM and 1950 nM, respectively.
`CO[C@@H](C)c1c(NC(=O)Nc2cnc(-n3nccn3)c(Cl)c2)cnc(C)c1C#N` [Co. 61]: the IC50 in experiment [1] came to 130 nM; in experiment [2], 90 nM; in experiment [3] it was 40 nM.
As for `CO[C@H](c1c(NC(=O)Nc2cnc(-n3nccn3)c(C(F)(F)F)c2)cnc(C)c1Cl)C1CC1` (single isomer, unassigned) [Co. 142], the half-inhibitory concentration (IC50) in experiment [1] (Homo sapiens) was 1200 nM; in experiment [2] (Homo sapiens), 780 nM; in experiment [3] it was 790 nM.
With `COc1cncc(NC(=O)Nc2cnc(-n3nccn3)c(C(F)(F)F)c2)c1[C@H](C)OC` [Co. 125], the figures for the half-inhibitory concentration (IC50) in experiment [1], in experiment [2] and in experiment [3] were 4570 nM, 2240 nM and 1450 nM, respectively.
Consider `CO[C@H](C)c1c(NC(=O)Nc2cnc(-n3nccn3)c(Cl)c2)cncc1OC(C)C` [Co. 9], for which the IC50 in experiment [1] was found to be 190 nM; in experiment [2], 170 nM; in experiment [3], 170 nM.
`CO[C@@H](C)c1c(Cl)cncc1NC(=O)Nc1cnc(-n2nccn2)c(Cl)c1` [Co. 24]: the results for the concentration for half-maximal inhibition (IC50) in experiment [1], in experiment [2] and in experiment [3] were 5620 nM, 3980 nM and 4570 nM, respectively.
For `CO[C@H](C)c1c(NC(=O)Nc2cnc(-n3nccn3)c(C(F)(F)F)c2)cnc(C)c1C#N` [Co. 100] the same measures were 90 nM, 60 nM and 30 nM.
In the case of `COc1cncc(NC(=O)Nc2cnc(-n3nccn3)c(C(F)(F)F)c2)c1[C@@H](C)OC` [Co. 124], the values for the IC50 in experiment [1], in experiment [2] and in experiment [3] were 150 nM, 110 nM and 80 nM, respectively.
For `CO[C@@H](C)c1c(NC(=O)Nc2cnc(-n3nccn3)c(C#N)c2)cnc(C)c1Br` [Co. 92] the same measures were 3020 nM, 1510 nM and 690 nM.

One may read the IC50 as the concentration that inhibits the measured activity by half.

The values are drawn from patent US12404260B2, “Pyridine rings containing derivatives as MALT1 inhibitors” (Janssen Pharmaceutica NV, priority 2019, dated 2025).
